From ChEMBL document CHEMBL1129576, “Nucleosides and nucleotides. 158. 1-(3-C-ethynyl-beta-D-ribo-pentofuranosyl)-cytosine, 1-(3-C-ethynyl-beta-D-ribo-pentofuranosyl)uracil, and their nucleobase analogues as new potential multifunctional antitumor nucleosides with a broad spectrum of activity” (J Med Chem, 1996)

What was measured:
L1210 = test: In vitro tumor cell growth inhibitory activity against mouse leukemia L1210 cell lines.; assay type: functional, cell-based
KB [1] = test: In vitro tumor cell growth inhibitory activity against human nasopharyngeal KB cell lines; assay type: functional, cell-based
Mus musculus [2] = test: In vivo inhibitory activity against KM12C tumor xenograft of […] in nude mice at a concentration of 2 mg/kg for 10 days; assay type: functional
QG-96 = test: In vitro tumor cell growth inhibitory activity against Human lung small-cell carcinoma cellb) QG-96; assay type: functional, cell-based
SW48 = test: In vitro tumor cell growth inhibitory activity against Human colon (adenocarcinoma) cell lines. SW-48; assay type: functional, cell-based
PC-8 = test: In vitro tumor cell growth inhibitory activity against Human lung (adenocarcinoma) cell lines. PC-8; assay type: functional, cell-based
[3] = In vitro tumor cell growth inhibitory activity against Human lung squamous-cell carcinoma cell lines QG-95; assay type: functional
Mus musculus [4] = test: In vivo inhibitory activity against DLD-1 tumor xenograft of […] in nude mice at a concentration of 2 mg/kg for 10 days; assay type: functional
PANC-1 = test: In vitro tumor cell growth inhibitory activity against Human pancreas (adenocarcinoma) cell lines. PANC-1; assay type: functional, cell-based
PC10 = test: In vitro tumor cell growth inhibitory activity against Human lung (adenocarcinoma) cell lines PC-10; assay type: functional, cell-based
ST-KM-1 = test: In vitro tumor cell growth inhibitory activity against Human stomach (adenocarcinoma) cell linesST-KM; assay type: functional, cell-based
YMB-1-E = test: In vitro tumor cell growth inhibitory activity against Human breast (adenocarcinoma) cell lines YMB-1-E.; assay type: functional, cell-based
MDA-MB-231 = test: In vitro tumor cell growth inhibitory activity against Human breast (adenocarcinoma) cell lines. […]; assay type: functional, cell-based
MCF7 = test: In vitro tumor cell growth inhibitory activity against Human breast (adenocarcinoma) cell lines. MCF-7; assay type: functional, cell-based
Mus musculus [5] = test: In vivo inhibitory activity against AZ-521 tumor xenograft of stomach in nude mice at a concentration of 2 mg/kg for 10 days; assay type: functional
Mus musculus [6] = test: In vivo inhibitory activity against CO-3 tumor xenograft of […] in nude mice at a concentration of 2 mg/kg for 10 days; assay type: functional
A-431 = test: In vitro tumor cell growth inhibitory activity against Human […] A431 cell lines; assay type: functional, cell-based
HT-1080 = test: In vitro tumor cell growth inhibitory activity against Human fibrosarcoma HT1080 cell lines.; assay type: functional, cell-based
MKN-45 (Homo sapiens) = test: In vitro tumor cell growth inhibitory activity against Human stomach (adenocarcinoma) cell lines. MKN-45
KB [7] = test: In vitro tumor cell growth inhibitory activity against Human melanoma cell lines. KB; assay type: functional, cell-based
NCI-H417 = test: In vitro tumor cell growth inhibitory activity against Human lung small-cell carcinoma cell NCI-H-417; assay type: functional, cell-based
Mus musculus [8] = test: In vivo inhibitory activity against BxPC-3 tumor xenograft of pancreas in nude mice at a concentration of 2 mg/kg for 10 days; assay type: functional
[9] = In vitro tumor cell growth inhibitory activity against Human stomach (adenocarcinoma) cell lines STSA-1
QG-56 = test: In vitro tumor cell growth inhibitory activity against Human lung squamous-cell carcinoma cell linesQG-56; assay type: functional, cell-based
NAKAJIMA = test: In vitro tumor cell growth inhibitory activity against Human stomach (adenocarcinoma) cell lines. h) NAKAJIMA; assay type: functional, cell-based
NUGC-4 = test: In vitro tumor cell growth inhibitory activity of Human stomach (adenocarcinoma) cell lines. NUGC-4; assay type: functional, cell-based
QG-90 = test: In vitro tumor cell growth inhibitory activity against Human lung small-cell carcinoma cell lines. QG-90; assay type: functional, cell-based
[10] = system: KATO III stomach cancer cell line; test: In vitro tumor cell growth inhibitory activity of Human stomach (adenocarcinoma) cell lines. KATO-III; assay type: functional, cell-based
fLS = test: In vitro tumor cell growth inhibitory activity of Human stomach (adenocarcinoma) cell lines. fLS; assay type: functional, cell-based
A-375 = test: In vitro tumor cell growth inhibitory activity against Human melanoma cell lines. A375; assay type: functional, cell-based
NCI-H82 (Homo sapiens) = test: In vitro tumor cell growth inhibitory activity against Human lung small-cell carcinoma cellc) NCI-H-82
Lu-65 = test: In vitro tumor cell growth inhibitory activity against Human lung large-cell carcinoma Lu-65 cell lines.; assay type: functional, cell-based
MG-63 = test: In vitro tumor cell growth inhibitory activity against Human osteosarcoma cell lines MG-63.; assay type: functional, cell-based
Mus musculus [11] = test: In vivo inhibitory activity against H-81 tumor xenograft of stomach in nude mice at a concentration of 2 mg/kg for 10 days; assay type: functional
T-24 = test: In vitro tumor cell growth inhibitory activity against Human bladder carcinoma cell lines. T24; assay type: functional, cell-based
MKN-28 = test: In vitro tumor cell growth inhibitory activity against Human stomach (adenocarcinoma) cell lines. MKN-28; assay type: functional, cell-based
SW480 = test: In vitro tumor cell growth inhibitory activity against Human colon (adenocarcinoma) cell lines. SW-480; assay type: functional, cell-based
Mus musculus [12] = test: In vivo inhibitory activity against H-31 cells tumor xenograft of breast in nude mice at a concentration of 2 mg/kg for 10 days; assay type: functional
PC-9 = test: In vitro tumor cell growth inhibitory activity against Human lung (adenocarcinoma) cell lines PC-9; assay type: functional, cell-based
HOS = test: In vitro tumor cell growth inhibitory activity against Human osteosarcoma cell lines. HOS; assay type: functional, cell-based
Mus musculus [13] = test: In vivo inhibitory activity against JRC-11 cell tumor xenograft of renal in nude mice at a concentration of 2 mg/kg for 10 days; assay type: functional
HCT-15 = test: In vitro tumor cell growth inhibitory activity against HCT-15; assay type: functional, cell-based; settings: Homo sapiens
Mus musculus [14] = test: In vivo inhibitory activity against NUGC-3 tumor xenograft of stomach in nude mice at a concentration of 2 mg/kg for 10 days; assay type: functional
Mus musculus [15] = test: In vivo inhibitory activity against PAN-12 tumor xenograft of pancreas in nude mice at a concentration of 2 mg/kg for 10 days; assay type: functional
[16] = system: MIA PaCa-2 (Homo sapiens); test: In vitro tumor cell growth inhibitory activity against Human pancreas (adenocarcinoma) cell Mia-PaCa-2
KK-47 cell line = test: In vitro tumor cell growth inhibitory activity against Human bladder carcinoma cell lines. kK-47; assay type: functional, cell-based
Mus musculus [17] = test: In vivo inhibitory activity against Hucc-T1 cells tumor xenograft of bile duct in nude mice at a concentration of 2 mg/kg for 10 days; assay type: functional
SK-MEL-28 = test: In vitro tumor cell growth inhibitory activity against Human melanoma cell lines. SK-MEL-28; assay type: functional, cell-based

Compound: C#C[C@]1(O)[C@@H](CO)OC(n2cc(F)c(N)nc2=O)[C@@H]1O (single isomer, unassigned)
- IC50 (L1210): 530 nM
- IC50 (KB [1]): 460 nM

Compound: C#C[C@]1(O)[C@@H](CO)O[C@@H](n2ccc(=O)[nH]c2=O)[C@@H]1O
- Inhibition ratio (Mus musculus [2]): 81%
- IC50 (QG-96): 380 nM
- IC50 (SW48): > 1900 nM
- IC50 (PC-8): 330 nM
- IC50 [3]: 280 nM
- Inhibition ratio (Mus musculus [4]): 73%
- IC50 (PANC-1): > 1900 nM
- IC50 (PC10): > 1900 nM
- IC50 (ST-KM-1): 86 nM
- IC50 (YMB-1-E): > 1900 nM
- IC50 (MDA-MB-231): > 1900 nM
- IC50 (MCF7): 200 nM
- Inhibition ratio (Mus musculus [5]): 81%
- Inhibition ratio (Mus musculus [6]): 90%
- IC50 (A-431): 290 nM
- IC50 (HT-1080): 160 nM
- IC50 (MKN-45 (Homo sapiens)): 52 nM
- IC50 (KB [7]): 29 nM
- IC50 (NCI-H417): 110 nM
- Inhibition ratio (Mus musculus [8]): 35%
- IC50 [9]: 1900 nM
- IC50 (QG-56): 150 nM
- IC50 (NAKAJIMA): 780 nM
- IC50 (NUGC-4): 220 nM
- IC50 (QG-90): 1000 nM
- IC50 (L1210): 130 nM
- IC50 [10]: 31 nM
- IC50 (fLS): 230 nM
- IC50 (A-375): 21 nM
- IC50 (NCI-H82 (Homo sapiens)): 230 nM
- IC50 (Lu-65): 89 nM
- IC50 (MG-63): > 1900 nM
- Inhibition ratio (Mus musculus [11]): 92%
- IC50 (KB [1]): 29 nM
- IC50 (T-24): 210 nM
- IC50 (MKN-28): 65 nM
- IC50 (SW480): 340 nM
- Inhibition ratio (Mus musculus [12]): 82%
- IC50 (PC-9): 190 nM
- IC50 (HOS): 1800 nM
- Inhibition ratio (Mus musculus [13]): 75%
- IC50 (HCT-15): 75 nM
- Inhibition ratio (Mus musculus [14]): 54%
- Inhibition ratio (Mus musculus [15]): 81%
- IC50 [16]: 54 nM
- IC50 (KK-47 cell line): 89 nM
- Inhibition ratio (Mus musculus [17]): 64%
- IC50 (SK-MEL-28): 86 nM
